What was measured:
Assay in all cases: relative viability (nuclei count vs DMSO), 5 days (fraction); higher = more cells survive
BX 795 + Dasatinib = compound: O=C(NCCCNc1nc(Nc2cccc(NC(=O)N3CCCC3)c2)ncc1I)c1cccs1 [BX 795] + Cc1nc(Nc2ncc(C(=O)Nc3c(C)cccc3Cl)s2)cc(N2CCN(CCO)CC2)n1 [Dasatinib] (partner 0.075 µM)
Method in brief: (§1)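 Lung cancer cell lines, seeded in 1536-well plates, were treated the following day by pin tool with a single drug or with five library-drug doses (not always all listed) in √10 steps on top of a fixed anchor-drug dose. Cells were fixed and nuclei stained in one step after 5 days, and nuclei were counted. Relative viability is the nuclei count for treated wells divided by that for vehicle wells, reported as medians of duplicate plates.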

BX 795 + OSI-027 = compound: O=C(NCCCNc1nc(Nc2cccc(NC(=O)N3CCCC3)c2)ncc1I)c1cccs1 [BX 795] + COc1cccc2cc(-c3nc([C@H]4CC[C@H](C(=O)O)CC4)n4ncnc(N)c34)[nH]c12 [OSI-027] (partner 0.5 µM)
Method in brief: as §1

BX 795 + AZD7762 = compound: O=C(NCCCNc1nc(Nc2cccc(NC(=O)N3CCCC3)c2)ncc1I)c1cccs1 [BX 795] + NC(=O)Nc1cc(-c2cccc(F)c2)sc1C(=O)N[C@H]1CCCNC1 [AZD7762] (partner 0.2 µM)
Method in brief: as §1

BX 795 + Linsitinib = compound: O=C(NCCCNc1nc(Nc2cccc(NC(=O)N3CCCC3)c2)ncc1I)c1cccs1 [BX 795] + C[C@]1(O)C[C@@H](c2nc(-c3ccc4ccc(-c5ccccc5)nc4c3)c3c(N)nccn32)C1 [Linsitinib] (partner 1 µM)
Method in brief: as §1

BX 795 + Lapatinib = compound: O=C(NCCCNc1nc(Nc2cccc(NC(=O)N3CCCC3)c2)ncc1I)c1cccs1 [BX 795] + CS(=O)(=O)CCNCc1ccc(-c2ccc3ncnc(Nc4ccc(OCc5cccc(F)c5)c(Cl)c4)c3c2)o1 [Lapatinib] (partner 2 µM)
Method in brief: as §1

Cell Line | relative viability (BX 795 + Dasatinib; first compound 0.04 µM) | relative viability (BX 795 + Dasatinib; first compound 0.1265 µM) | relative viability (BX 795 + Dasatinib; first compound 0.4 µM) | relative viability (BX 795 + Dasatinib; first compound 1.265 µM) | relative viability (BX 795 + OSI-027; first compound 0.04 µM) | relative viability (BX 795 + OSI-027; first compound 0.1265 µM) | relative viability (BX 795 + OSI-027; first compound 0.4 µM) | relative viability (BX 795 + OSI-027; first compound 1.265 µM) | relative viability (BX 795 + AZD7762; first compound 0.04 µM) | relative viability (BX 795 + AZD7762; first compound 0.1265 µM) | relative viability (BX 795 + AZD7762; first compound 0.4 µM) | relative viability (BX 795 + AZD7762; first compound 1.265 µM) | relative viability (BX 795 + Linsitinib; first compound 0.04 µM) | relative viability (BX 795 + Linsitinib; first compound 0.1265 µM) | relative viability (BX 795 + Linsitinib; first compound 0.4 µM) | relative viability (BX 795 + Linsitinib; first compound 1.265 µM) | relative viability (BX 795 + Lapatinib; first compound 0.04 µM) | relative viability (BX 795 + Lapatinib; first compound 0.1265 µM) | relative viability (BX 795 + Lapatinib; first compound 0.4 µM) | relative viability (BX 795 + Lapatinib; first compound 1.265 µM)
HARA | 0.241 | 0.268 | 0.26 | 0.276 | 0.598 | 0.494 | 0.701 | 0.41 | 0.149 | 0.301 | 0.286 | 0.387 | 0.896 | 0.966 | 0.916 | 0.795 | 0.714 | 0.564 | 0.753 | 0.697
NCI-H322M | 0.256 | 0.254 | 0.295 | 0.28 | 0.614 | 0.587 | 0.414 | 0.559 | 0.62 | 0.532 | 0.555 | 0.753 | 0.984 | 1.01 | 1.02 | 0.967 | 0.675 | 0.616 | 0.628 | 0.684
EPLC-272H | 0.436 | 0.329 | 0.274 | 0.267 | 0.297 | 0.291 | 0.304 | 0.336 | 0.215 | 0.337 | 0.234 | 0.259 | 1.33 |  | 1.06 | 0.972 | 1.01 |  | 0.893 | 0.677
NCI-H3122 | 0.791 | 1 | 0.8 | 0.852 | 0.948 | 1.06 | 0.947 | 0.733 | 1.06 | 1.07 | 0.937 | 1.03 | 0.989 | 1.02 | 1.08 | 1.1 | 1.04 | 1 | 1.09 | 1.05
NCI-H727 | 0.376 | 0.318 | 0.386 | 0.58 | 0.761 | 0.635 | 0.537 | 0.557 | 0.614 | 0.535 | 0.671 | 0.531 | 0.294 | 0.247 | 0.277 | 0.24 | 0.737 | 1.01 | 0.735 | 0.637
NCI-H1944 | 0.241 | 0.219 | 0.201 | 0.194 | 0.51 | 0.459 | 0.488 | 0.381 | 0.531 | 0.555 | 0.48 | 0.531 | 1.25 | 1.36 | 1.14 | 1.1 | 0.903 | 0.781 | 0.879 | 0.642
201T | 0.627 | 0.617 | 0.629 | 0.635 | 0.946 | 0.675 | 0.775 | 0.824 | 0.6 | 0.603 | 0.597 | 0.628 | 1.06 | 1.08 | 1.04 | 1.03 | 1.1 | 1.04 | 1.12 | 1.01
HCC-366 | 0.757 | 0.73 | 0.498 | 0.631 | 1.08 | 0.881 | 0.644 | 0.444 | 0.228 | 0.227 | 0.19 | 0.306 | 0.469 | 0.727 | 0.257 | 0.3 | 0.834 | 1.11 | 0.858 | 1.12

Reference: the supplement of paper PMC10307832
